These molecules were tested against T1, human TGR5 (Homo sapiens, UniProt Q8TDU6) (assay: Cell-based TGR5 assay (cAMP generation, HTRF)). Settings: HEK293 cells stably transfected with human TGR5; cAMP by HTRF; 30 minutes at 37° C.; read-out: pEC50 Human TGR5 (converted).
T1 construct: expressed in transfected cells; host or cells: HEK293
T1 sequence (Q8TDU6 1-330): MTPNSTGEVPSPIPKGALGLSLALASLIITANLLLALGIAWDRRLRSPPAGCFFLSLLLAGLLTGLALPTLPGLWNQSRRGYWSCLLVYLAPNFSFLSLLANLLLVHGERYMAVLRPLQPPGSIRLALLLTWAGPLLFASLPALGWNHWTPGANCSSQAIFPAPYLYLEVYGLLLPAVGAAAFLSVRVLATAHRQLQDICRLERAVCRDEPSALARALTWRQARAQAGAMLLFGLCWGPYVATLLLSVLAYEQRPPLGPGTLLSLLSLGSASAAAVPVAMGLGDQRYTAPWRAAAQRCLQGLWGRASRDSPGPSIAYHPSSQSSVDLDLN
In short: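 First, compounds in 3-fold serial dilution were placed in HBSS with 10 mM HEPES pH 7.4 and 0.5 mM IBMX. Next, human TGR5-expressing HEK293 cells were added and incubated 30 min at 37° C. Finally, cAMP was detected by HTRF and pEC50 derived by logistic fitting.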

Question: With CC(=O)N(CCCSc1ccc(Cl)c(COC2(c3cnccc3-c3ccccc3OC3CC3)CC2)c1)C[C@H](O)[C@@H](O)[C@H](O)[C@H](O)CO [Compound I-500, N-(3-{[4-chloro-3-({1-[4-(2-cyclopropoxyphenyl)pyridin-3-yl]cyclopropoxy}methyl)phenyl]sulfanyl}propyl)-N-[(2S,3R,4R,5R)-2,3,4,5,6-pentahydroxyhexyl]acetamide] as the molecule, how does the EC50 read?
Answer: Its EC50 is < 100 nM.

Question: With O=C(NCC1CCN(S(=O)(=O)c2ccc(Cl)c(COC3(c4cnccc4-c4ccccc4OC4CC4)CC3)c2)CC1)NC[C@H](O)[C@@H](O)[C@H](O)[C@H](O)CO [Compound I-424, 1-({1-[4-chloro-3-({1-[4-(2-cyclopropoxyphenyl)pyridin-3-yl]cyclopropoxy}methyl)benzenesulfonyl]piperidin-4-yl}methyl)-3-[(2S,3R,4R,5R)-2,3,4,5,6-pentahydroxyhexyl]urea] as the molecule, how does the EC50 read?
Answer: The EC50 was < 100 nM.

Question: With O=C(CCCSc1ccc(Cl)c(COC2(c3cnccc3-c3ccccc3OC3CC3)CC2)c1)N(C[C@H](O)[C@@H](O)[C@H](O)[C@H](O)CO)C1CCOCC1 [Compound I-669, 4-{[4-chloro-3-({1-[4-(2-cyclopropoxyphenyl)pyridin-3-yl]cyclopropoxy}methyl)phenyl]sulfanyl}-N-(oxan-4-yl)-N-[(2S,3R,4R,5R)-2,3,4,5,6-pentahydroxyhexyl]butanamide] as the molecule, how does the EC50 read?
Answer: The EC50 was 126 to 1000 nM.

Question: How did the EC50 turn out when CC(CCCC(=O)NCCN1CCN(CC(=O)NC[C@H](O)[C@@H](O)[C@H](O)[C@H](O)CO)CC1)c1ccc(Cl)c(CNC2(c3cnccc3-c3ccccc3OC3CC3)CC2)c1 (stereo partly drawn) [Compound I-324, 5-{4-chloro-3-[({1-[4-(2-cyclopropoxyphenyl)pyridin-3-yl]cyclopropyl}amino)methyl]phenyl}-N-{2-[4-({[(2S,3R,4R,5R)-2,3,4,5,6-pentahydroxyhexyl]carbamoyl}methyl)piperazin-1-yl]ethyl}hexanamide] was run?
Answer: Its EC50 is < 100 nM.

Question: CC(=O)N(CCCCC(C)c1ccc(Cl)c(CNC2(c3cnccc3-c3ccccc3OC3CC3)CC2)c1)C[C@H](O)[C@@H](O)[C@H](O)[C@H](O)CO (stereo partly drawn) [Compound I-378, N-(5-{4-chloro-3-[({1-[4-(2-cyclopropoxyphenyl)pyridin-3-yl]cyclopropyl}amino)methyl]phenyl}hexyl)-N-[(2S,3R,4R,5R)-2,3,4,5,6-pentahydroxyhexyl]acetamide] was tested. Which EC50 did it give?
Answer: Its EC50 is < 100 nM.

Question: How did the EC50 turn out when CC(OCCc1cc(Cl)c(COC2(c3cnccc3-c3ccccc3OC3CC3)CC2)cc1Cl)C(=O)N(C)C[C@H](O)[C@@H](O)[C@H](O)[C@H](O)CO (stereo partly drawn) [Compound I-155, 2-{2-[2,5-dichloro-4-({1-[4-(2-cyclopropoxyphenyl)pyridin-3-yl]cyclopropoxy}methyl)phenyl]ethoxy}-N-methyl-N-[(2S,3R,4R,5R)-2,3,4,5,6-pentahydroxyhexyl]propanamide] was run?
Answer: Its EC50 is < 100 nM.

Question: Which EC50 does the source give for CC(CCCN(CCCN1CCCC1=O)C(=O)[C@@H](O)[C@@H](O)[C@H](O)[C@@H](O)CO)c1ccc(Cl)c(CNC2(c3cnccc3-c3ccccc3OC3CC3)CC2)c1 (stereo partly drawn) [Compound I-294, (2S,3S,4R,5S)-N-(4-{4-chloro-3-[({1-[4-(2-cyclopropoxyphenyl)pyridin-3-yl]cyclopropyl}amino)methyl]phenyl}pentyl)-2,3,4,5,6-pentahydroxy-N-[3-(2-oxopyrrolidin-1-yl)propyl]hexanamide] here?
Answer: The EC50 was < 100 nM.

Question: Which EC50 does the source give for COCCN(CCCCc1cc(Cl)c(COC2(c3cnccc3-c3ccccc3OC3CC3)CC2)cc1C)C(=O)NC[C@H](O)[C@@H](O)[C@H](O)[C@H](O)CO [Compound I-116, 1-{4-[5-chloro-4-({1-[4-(2-cyclopropoxyphenyl)pyridin-3-yl]cyclopropoxy}methyl)-2-methylphenyl]butyl}-1-(2-methoxyethyl)-3-[(2S,3R,4R,5R)-2,3,4,5,6-pentahydroxyhexyl]urea] here?
Answer: Its EC50 is < 100 nM.

Question: CC(CCCCN(C)C(=O)NC[C@H](O)[C@@H](O)[C@H](O)[C@H](O)CO)c1ccc(Cl)c(CNC2(c3cnccc3-c3ccccc3OC3CC3)CC2)c1 (stereo partly drawn) [Compound I-269, 1-(5-{4-chloro-3-[({1-[4-(2-cyclopropoxyphenyl)pyridin-3-yl]cyclopropyl}amino)methyl]phenyl}hexyl)-1-methyl-3-[(2S,3R,4R,5R)-2,3,4,5,6-pentahydroxyhexyl]urea] was tested. Which EC50 did it give?
Answer: The EC50 was < 100 nM.

Question: With Cc1cc(COC2(c3cnccc3-c3ccccc3OC3CC3)CC2)c(Cl)cc1CCCCNC(=O)N[C@@H](CO)[C@@H](O)[C@H](O)[C@H](O)CO [Compound I-95, 1-(4-(5-chloro-4-((1-(4-(2-cyclopropoxyphenyl)pyridin-3-yl)cyclopropoxy)methyl)-2-methylphenyl)butyl)-3-((2S,3R,4S,5R)-1,3,4,5,6-pentahydroxyhexan-2-yl)urea] as the molecule, how does the EC50 read?
Answer: The EC50 was < 100 nM.

Question: How did the EC50 turn out when CCOC(=O)NCCCN(CCCSc1ccc(Cl)c(COC2(c3cnccc3-c3ccccc3OC3CC3)CC2)c1)C(=O)[C@@H](O)[C@@H](O)[C@H](O)[C@@H](O)CO [Compound I-596, ethyl N-{3-[(2S,3S,4R,5S)-N-(3-{[4-chloro-3-({1-[4-(2-cyclopropoxyphenyl)pyridin-3-yl]cyclopropoxy}methyl)phenyl]sulfanyl}propyl)-2,3,4,5,6-pentahydroxyhexanamido]propyl}carbamate] was run?
Answer: The EC50 was 126 to 1000 nM.

Question: With CC(C)N(CCCCNC(=O)N[C@@H](CO)[C@@H](O)[C@H](O)[C@H](O)CO)S(=O)(=O)c1cc(COC2(c3cnccc3-c3ccccc3OC3CC3)CC2)c(Cl)cc1F [Compound I-763, 4-chloro-5-((1-(4-(2-cyclopropoxyphenyl)pyridin-3-yl)cyclopropoxy)methyl)-2-fluoro-N-isopropyl-N-(4-(3-((2S,3R,4S,5R)-1,3,4,5,6-pentahydroxyhexan-2-yl)ureido)butyl) benzenesulfonamide] as the molecule, how does the EC50 read?
Answer: The EC50 was < 100 nM.

Question: O=C(O)CCN(C[C@H](O)[C@@H](O)[C@H](O)[C@H](O)CO)C(=O)CCCCc1cc(Cl)c(CNC2(c3cnccc3-c3ccccc3OC3CC3)CC2)cc1Cl [Compound I-178, 3-(5-{2,5-dichloro-4-[({1-[4-(2-cyclopropoxyphenyl)pyridin-3-yl]cyclopropyl}amino)methyl]phenyl}-N-[(2S,3R,4R,5R)-2,3,4,5,6-pentahydroxyhexyl]pentanamido)propanoic acid] was tested. Which EC50 did it give?
Answer: Its EC50 is 126 to 1000 nM.

Question: How did the EC50 turn out when O=C([C@@H](O)[C@@H](O)[C@H](O)[C@@H](O)CO)N(CCCCSc1ccc(Cl)c(CNC2(c3cnccc3-c3ccccc3OC3CC3)CC2)c1)C1CCS(=O)(=O)CC1 [Compound I-581, (2S,3S,4R,5S)-N-[4-({4-chloro-3-[({1-[4-(2-cyclopropoxyphenyl)pyridin-3-yl]cyclopropyl}amino)methyl]phenyl}sulfanyl)butyl]-N-(1,1-dioxo-1λ^6-thian-4-yl)-2,3,4,5,6-pentahydroxyhexanamide] was run?
Answer: Its EC50 is < 100 nM.

Question: Which EC50 does the source give for CN(C)CCN(C[C@H](O)[C@@H](O)[C@H](O)[C@H](O)CO)C(=O)CCCSc1ccc(Cl)c(COC2(c3cnccc3-c3ccccc3OC3CC3)CC2)c1 [Compound I-662, 4-{[4-chloro-3-({1-[4-(2-cyclopropoxyphenyl)pyridin-3-yl]cyclopropoxy}methyl)phenyl]sulfanyl}-N-[2-(dimethylamino)ethyl]-N-[(2S,3R,4R,5R)-2,3,4,5,6-pentahydroxyhexyl]butanamide] here?
Answer: Its EC50 is 126 to 1000 nM.

Question: Clc1cccc(CNC2(c3cnccc3-c3ccccc3OC3CC3)CC2)c1Cl [Compound I-26, 1-[4-(2-cyclopropoxyphenyl)pyridin-3-yl]-N-[(2,3-dichlorophenyl)methyl]cyclopropan-1-amine] was tested. Which EC50 did it give?
Answer: The EC50 was 126 to 1000 nM.

Question: With O=C(O)CCCCc1cc(Cl)c(CNC2(c3cnccc3-c3ccccc3OC3CC3)CC2)cc1Cl [Compound I-61, 5-[2,5-dichloro-4-[([1-[4-(2-cyclopropoxyphenyl)pyridin-3-yl]cyclopropyl]amino)methyl]phenyl]pentanoic acid] as the molecule, how does the EC50 read?
Answer: The EC50 was 126 to 1000 nM.

Question: With O=C(NCCCCc1ccc(Cl)c(CNC2(c3cnccc3-c3ccccc3OC3CC3)CC2)c1)NC[C@H](O)[C@@H](O)[C@H](O)[C@H](O)CO (stereo in doubt) [Compound I-241, 1-(4-{4-chloro-3-[({1-[4-(2-cyclopropoxyphenyl)pyridin-3-yl]cyclopropyl}amino)methyl]phenyl}butyl)-3-[(2S,3R,4R,5R)-2,3,4,5,6-pentahydroxyhexyl]urea] as the molecule, how does the EC50 read?
Answer: Its EC50 is 126 to 1000 nM.

Question: With O=C(C1CCOCC1)N(CCCCc1cc(Cl)c(COC2(c3cnccc3-c3ccccc3OC3CC3)CC2)cc1Cl)C[C@H](O)[C@@H](O)[C@H](O)[C@H](O)CO [Compound I-67, N-(4-(2,5-dichloro-4-((1-(4-(2-cyclopropoxyphenyl)pyridin-3-yl)cyclopropoxy)methyl)phenyl)butyl)-N-((2S,3R,4R,5R)-2,3,4,5,6-pentahydroxyhexyl)tetrahydro-2H-pyran-4-carboxamide] as the molecule, how does the EC50 read?
Answer: Its EC50 is < 100 nM.

Question: With O=C(CCCCc1cc(Cl)c(COC2(c3cnccc3-c3ccccc3OC3CC3)CC2)cc1Cl)N[C@@H](C(=O)O)[C@@H](O)[C@H](O)[C@H](O)CO [Compound I-153] as the molecule, how does the EC50 read?
Answer: The EC50 was < 100 nM.

Question: For Cc1ccc([C@@H](C)CCCC(=O)N(CCS(C)(=O)=O)C[C@H](O)[C@@H](O)[C@H](O)[C@H](O)CO)cc1CNC1(c2cnccc2-c2ccccc2OC2CC2)CC1 (single isomer, unassigned) [Compound I-367], which EC50 is on record?
Answer: Its EC50 is < 100 nM.

Question: With CC(C)CN(CCCCNC(=O)N[C@@H](CO)[C@@H](O)[C@H](O)[C@H](O)CO)S(=O)(=O)c1ccc(Cl)c(COC2(c3cnccc3-c3ccccc3OC3CC3)CC2)c1 [Compound I-761, 4-chloro-3-((1-(4-(2-cyclopropoxyphenyl)pyridin-3-yl)cyclopropoxy)methyl)-N-isobutyl-N-(4-(3-((2S,3R,4S,5R)-1,3,4,5,6-pentahydroxyhexan-2-yl)ureido)butyl)benzenesulfonamide] as the molecule, how does the EC50 read?
Answer: Its EC50 is < 100 nM.

Source: patent US12084472B2 (Ardelyx, Inc., priority 2015, dated 2024)
